Source: paper PMC7067379, “Mapping the S1 and S1’ subsites of cysteine proteases with new dipeptidyl nitrile inhibitors as trypanocidal agents” (PLoS Neglected Tropical Diseases, 2020)
Like-named read-outs stand apart in the source and are kept apart here.

Legend:
[1] = target: Leishmania mexicana CPB (LmCPB) (Leishmania mexicana, UniProt P36400); assay: LmCPB enzyme inhibition; type: biochemical; settings: for difference in pKi, LmCPB: sign not given, direction by cell colour or wording
Protocol: (§1) Enzyme inhibition studies for Cz and LmCPB were performed as previously described for Cz. The experimental procedures are described in the Supporting Information (see chapter S3). Cathepsins B, L, S were assayed as reported.

recombinant cruzain (Cz) = recombinant cruzain (Cz) (Trypanosoma cruzi, UniProt P25779); assay: Cruzain enzyme inhibition; type: biochemical; settings: for difference in pKi, Cz: sign not given, direction by cell colour or wording
Sequence of recombinant cruzain (Cz) (P25779 123-337): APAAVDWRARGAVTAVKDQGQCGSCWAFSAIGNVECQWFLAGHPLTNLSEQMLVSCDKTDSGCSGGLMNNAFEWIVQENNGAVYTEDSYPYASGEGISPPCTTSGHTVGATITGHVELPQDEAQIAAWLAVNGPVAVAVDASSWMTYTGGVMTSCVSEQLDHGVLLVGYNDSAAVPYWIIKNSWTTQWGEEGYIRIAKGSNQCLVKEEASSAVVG
Protocol: as §1

cathepsin L (CatL) = cathepsin L (CatL) (Homo sapiens, UniProt P07711); assay: Cathepsin L enzyme inhibition; type: biochemical; settings: for Ki: SD lower than 15%, read-out: pKi CatL (converted); for difference in pKi, CatL: relative to compound 11, sign not given, direction by cell colour or wording
Sequence of cathepsin L (CatL) (P07711 114-333): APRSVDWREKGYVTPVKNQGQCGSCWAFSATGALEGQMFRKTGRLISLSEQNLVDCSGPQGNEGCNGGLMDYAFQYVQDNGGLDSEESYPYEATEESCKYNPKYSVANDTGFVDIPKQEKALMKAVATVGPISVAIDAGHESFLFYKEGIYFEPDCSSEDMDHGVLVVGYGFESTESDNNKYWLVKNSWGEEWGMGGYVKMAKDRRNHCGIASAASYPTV

[2] = system: T. cruzi Tulahuen LacZ strain, intracellular amastigote forms; assay: In vitro trypanocidal activity on intracellular amastigote forms (Tulahuen strain); type: cell-based, Trypanosoma cruzi; settings: for EC50: Trypanosoma cruzi, TULAHUEN; for SI (selective index): from EC50 (T. cruzi) and CC50 (LLCMK2)
Protocol: Cells were evaluated in 96-well plates. Cells from the LLCMK2 lineage were plated at a concentration of 5x10^4 cells mL^-1. Trypomastigote forms of the Tulahuen LacZ strain were added at a concentration of 5×10^5 parasites mL^-1 and placed in the incubator at 37°C with 5% CO2 for 24 h. After the incubation period, the trypomastigote forms present were removed by successive washes with PBS, remaining only as intracellular amastigote forms. Compounds were added at different concentrations (1.95 μM to 250 μM serial dilutions) and incubated for 72 h. At the end of this period, the substrate CPRG (chlorophenol red β-D-galactopyranoside, 400 μM in 0.3% Triton X-100, pH 7.4) was added. […] Benznidazole was used as a positive control in the same concentrations as the substances, and DMSO as a negative control. Compounds were solubilized in DMSO. The selectivity index (SI) was calculated using the formula: […]. All statistical analyses were done with the program GraphPad Prism v.5.

[3] = target: T1, Human recombinant cathepsin K (Homo sapiens, UniProt P43235); assay: Cathepsin K assay; type: biochemical; settings: for Ki: SD lower than 15%, read-out: pKi CatK (converted)
T1 sequence (P43235 115-329): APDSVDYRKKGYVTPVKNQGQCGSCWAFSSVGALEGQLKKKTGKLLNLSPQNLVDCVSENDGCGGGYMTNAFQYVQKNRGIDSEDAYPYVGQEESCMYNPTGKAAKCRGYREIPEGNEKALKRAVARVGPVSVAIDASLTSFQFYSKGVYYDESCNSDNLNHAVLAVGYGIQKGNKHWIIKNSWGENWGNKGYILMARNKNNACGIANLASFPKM
Protocol: Human recombinant cathepsin K was assayed on a FLUOSTAR Optima plate reader at 25 °C with an excitation wavelength of 360 nm and an emission wavelength of 440 nm on a 96 well plate. The enzyme solution (23 μg/mL in 50 mM sodium acetate pH 5.5, 50 mM NaCl, 0.5 mM EDTA, 5 mM DTT) was diluted 1:100 with assay buffer (100 mM sodium citrate buffer pH 5.0, 100 mM NaCl, 1 mM EDTA, 0.01% CHAPS) containing 5 mM DTT and was then incubated at 37 °C for 30 min for activation. A 1.5 mM stock solution of the substrate Z-Leu-Arg-AMC was prepared in DMSO. […] The assay was performed with a final concentration of cathepsin K of 1.73 ng/mL. Stock solutions of inhibitors were prepared in DMSO. The final DMSO concentration was 2% (4 μL). Into a well containing 194.5 μL assay buffer, 0.8 μL of the fluorogenic substrate, DMSO and inhibitor solution (3.2 μL) were added. Upon addition of cathepsin K (1.5 μL), the measurement was started and followed for 20 min.

cathepsin B (CatB) = cathepsin B (CatB) (Homo sapiens, UniProt P07858); assay: Cathepsin B enzyme inhibition; type: biochemical; settings: for Ki: SD lower than 15%, read-out: pKi CatB (converted)
cathepsin S (CatS) = cathepsin S (CatS) (Homo sapiens, UniProt P25774); assay: Cathepsin S enzyme inhibition; type: biochemical; settings: SD lower than 15%; read-out: pKi CatS (converted)
Sequence of cathepsin S (CatS) (P25774 115-331): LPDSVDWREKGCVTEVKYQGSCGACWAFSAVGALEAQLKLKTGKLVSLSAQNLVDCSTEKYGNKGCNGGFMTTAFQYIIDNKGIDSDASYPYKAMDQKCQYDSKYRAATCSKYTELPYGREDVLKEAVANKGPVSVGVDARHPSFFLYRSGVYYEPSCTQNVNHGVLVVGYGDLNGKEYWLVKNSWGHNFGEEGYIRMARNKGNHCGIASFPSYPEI
Protocol: as §1

[4] = Mammalian cytotoxicity assay (MTT); type: cell-based; settings: rhesus monkey, LLCMK2 cells;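 also: Read-out is absorbance at 570 nm of formazan taken up in DMSO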
Protocol: LLCMK2 cells were cultured in 96-well plates at a concentration of 5 x 10^4 cells/ml. After 48 h, the plates were washed twice with PBS and 200 μL RPMI medium was added with serial dilutions of the compounds and benznidazole (1.95 μM to 250 μM) in triplicate. After 72 h at 37 °C, the cytotoxic activity of the compounds was determined by the classical MTT [3- (4,5-dimethylthiazol-2-yl) -2,5-diphenyltetrazolium bromide] method. Briefly, 50 μL MTT dissolved in PBS (2.0 mg mL^-1) was added to each well and the plates were incubated for 4 h at 37 °C. The formed formazan crystals were dissolved with DMSO (50 μL/well) and the absorbance of the samples was measured by spectrophotometer at 570 nm after 30 min.

[5] = SD lower than 15%, read-out: pKi LmCPB (converted)
[6] = SD lower than 15%, read-out: pKi Cz (converted)
[7] = 10 μM, replicates = 2, n.i. = no inhibition observed at 10 μM
[8] = S1 Table, maximum concentration used 250 µM, read-out: CC50
[9] = S1 Table, maximum concentration used 250 µM, read-out: EC50 T. cruzi
[10] = T. cruzi amastigote form, S1 Table, read-out: pEC50 (converted)
[11] = LLCMK2, 72 h, MTT, Table 2, read-out: CC50 cytotoxicity
[12] = 72 h, amastigote, Tulahuen strain, 72 h, Table 2, read-out: EC50 trypanocidal activity

Sequence of Leishmania mexicana CPB (LmCPB) (P36400 126-443): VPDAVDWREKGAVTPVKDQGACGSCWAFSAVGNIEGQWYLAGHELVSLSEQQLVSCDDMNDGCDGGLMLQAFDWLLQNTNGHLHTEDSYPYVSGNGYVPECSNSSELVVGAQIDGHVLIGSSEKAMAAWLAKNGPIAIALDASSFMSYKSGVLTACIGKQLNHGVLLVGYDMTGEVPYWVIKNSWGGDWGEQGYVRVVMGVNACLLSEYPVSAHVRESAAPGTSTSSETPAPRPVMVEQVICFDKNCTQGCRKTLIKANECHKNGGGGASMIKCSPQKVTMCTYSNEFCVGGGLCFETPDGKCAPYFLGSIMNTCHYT

Structure (SMILES)	Ki [1, 5]	Ki (recombinant cruzain (Cz); [6])	Ki (cathepsin L (CatL))	melting point	Ki (cathepsin B (CatB))	Ki (cathepsin S (CatS))	CC50 at 72 h [4, 8]	EC50 [2, 9]	EC50 [2, 10]	SI (selective index) ([2]; Table 2)	Ki [3]	CC50 at 72 h [4, 11]	EC50 [2, 12]	also measured
N#CC1(NC(=O)[C@H](Cc2c[nH]c3ccccc23)NC(=O)c2ccnc3cc(Cl)ccc23)CC1 [Compound 14, (S)-7-Chloro-N-(1-((1-cyanocyclopropyl)amino)-3-(1H-indol-3-yl)-1-oxopropan-2-yl)quinoline-4-carboxamide]	2000 nM	631 nM	2000 nM	196 to 197 °C	20000 nM	1000 nM	> 100000 nM	–	–	–	–	–	–	EC50 ([2]; read-out: EC50 T. cruzi, S1 Table, maximum concentration used 250 µM): > 100000 nM; remaining activity (%) at 10 μM, CatK [3, 7]: n.i.^c
CC(C)C[C@H](NC(=O)c1ccnc2cc(Cl)ccc12)C(=O)NC1(C#N)CC1 [Compound 15, (S)-7-Chloro-N-(1-((1-cyanocyclopropyl)amino)-4-methyl-1-oxopentan-2-yl)quinoline-4-carboxamide]	50.1 nM	15.8 nM	251 nM	169 to 170 °C	–	126 nM	> 100000 nM	77300 nM	79400 nM	1.14	126 nM	73600 ± 8740 nM	–	difference in pKi, CatL (cathepsin L (CatL)): 1.0; EC50 ([2]; 72 h, read-out: EC50 trypanocidal activity, amastigote, Tulahuen strain, 72 h, Table 2): 64700 ± 4320 nM; remaining activity at 10 µM (cathepsin B (CatB); [7]): 89%
N#CC1(NC(=O)[C@H](Cc2ccccc2)NC(=O)c2cccc(OC(=O)c3ccccc3)c2)CC1 [Compound 16, (S)-3-((1-((1-Cyanocyclopropyl)amino)-1-oxo-3-phenylpropan-2-yl)carbamoyl)phenyl benzoate]	100 nM	126 nM	501 nM	185 to 187 °C	6310 nM	50.1 nM	–	–	50100 nM	> 2.1	631 nM	> 100000 nM	47300 ± 3260 nM	–
CC(C)C[C@H](NC(=O)c1ccc(N)nc1)C(=O)NC1(C#N)CC1 [Compound 17, (S)-6-Amino-N-(1-((1-cyanocyclopropyl)amino)-4-methyl-1-oxopentan-2-yl)nicotinamide]	158 nM	79.4 nM	316 nM	100 to 101 °C	–	25.1 nM	> 100000 nM	> 100000 nM	> 100000 nM	–	10 nM	–	–	remaining activity (%) at 10 μM, CatB (cathepsin B (CatB); [7]): n.i.^c
CC(C)C[C@H](NC(=O)c1cnc2[nH]ccc2c1)C(=O)NC1(C#N)CC1 [Compound 18, (S)-N-(1-((1-Cyanocyclopropyl)amino)-4-methyl-1-oxopentan-2-yl)-1H-pyrrolo[2,3-b]pyridine-5-carboxamide]	–	–	79.4 nM	79 to 80 °C	31600 nM	50.1 nM	> 100000 nM	> 100000 nM	> 100000 nM	–	2 nM	–	–	Ki [1]: 63.1 nM; difference in pKi, LmCPB ([1]; relative to compound 11): -0.5; Ki (recombinant cruzain (Cz)): 20 nM; difference in pKi, Cz (recombinant cruzain (Cz); relative to compound 11): -0.7
C[C@@H](O)[C@H](NC(=O)c1cc(C(C)(C)C)nn1C)C(=O)NC1(C#N)CC1 [Compound 19, 3-(tert-Butyl)-N-((2S,3R)-1-((1-cyanocyclopropyl)amino)-3-hydroxy-1-oxobutan-2-yl)-1-methyl-1H-pyrazole-5-carboxamide]	–	–	6310 nM	201 to 202 °C	25100 nM	10000 nM	> 100000 nM	> 100000 nM	> 100000 nM	–	3160 nM	–	–	remaining activity at 10 µM ([1]; 10 μM, replicates = 2): 67%; remaining activity at 10 µM (recombinant cruzain (Cz); 10 μM, replicates = 2): 51%; difference in pKi, CatL (cathepsin L (CatL)): 0.5
Cn1nc(C(C)(C)C)cc1C(=O)N[C@@H](Cc1ccccc1)C(=O)N[C@H](C#N)Cc1ccccc1 [Compound 50, 3-(tert-Butyl)-N-((S)-1-(((S)-1-cyano-2-phenylethyl)amino)-1-oxo-3-phenylpropan-2-yl)-1-methyl-1H-pyrazole-5-carboxamide]	15.8 nM	20 nM	3.16 nM	89 to 90 °C	31600 nM	50.1 nM	–	63500 nM	63100 nM	1.31	501 nM	83100 ± 6850 nM	63300 ± 5740 nM	difference in pKi, LmCPB ([1]; relative to compound 9): 0.7; difference in pKi, Cz (recombinant cruzain (Cz); relative to compound 9): 0.4; difference in pKi, CatB (cathepsin B (CatB); relative to compound 9, sign not given, direction by cell colour or wording): 0.3
Cn1nc(C(C)(C)C)cc1C(=O)N[C@@H](Cc1ccccc1)C(=O)N[C@@H](C#N)Cc1ccccc1 [Compound 51, 3-(tert-Butyl)-N-((S)-1-(((R)-1-cyano-2-phenylethyl)amino)-1-oxo-3-phenylpropan-2-yl)-1-methyl-1H-pyrazole-5-carboxamide]	794 nM	501 nM	126 nM	98 to 99 °C	–	1260 nM	42300 nM	–	7940 nM	4.9	2510 nM	42300 ± 3940 nM	8600 ± 530 nM	remaining activity at 10 µM (cathepsin B (CatB); [7]): 94%
CC(C)C[C@@H](C#N)NC(=O)[C@H](Cc1ccccc1)NC(=O)c1cc(C(C)(C)C)nn1C [Compound 52, 3-(tert-Butyl)-N-((S)-1-(((S)-1-cyano-3-methylbutyl)amino)-1-oxo-3-phenylpropan-2-yl)-1-methyl-1H-pyrazole-5-carboxamide]	39.8 nM	31.6 nM	5.01 nM	81 to 82 °C	7940 nM	126 nM	–	–	3980 nM	–	200 nM	97900 ± 6520 nM	4100 ± 470 nM	fold increase in trypanocidal potency ([2]; compared with compound 9): 17.5 fold
Cn1nc(C(C)(C)C)cc1C(=O)N[C@@H](Cc1ccccc1)C(=O)N[C@H](C#N)Cc1cccc(Cl)c1 [Compound 54, 3-(tert-Butyl)-N-((S)-1-(((S)-2-(3-chlorophenyl)-1-cyanoethyl)amino)-1-oxo-3-phenylpropan-2-yl)-1-methyl-1H-pyrazole-5-carboxamide]	–	–	5.01 nM	132 to 133 °C	12600 nM	79.4 nM	–	–	15800 nM	2.83	501 nM	44700 ± 5240 nM	15800 ± 1430 nM	Ki [1]: 31.6 nM; Ki (recombinant cruzain (Cz)): 31.6 nM
C[C@@H](OCc1ccccc1)[C@@H](C#N)NC(=O)[C@H](Cc1ccccc1)NC(=O)c1cc(C(C)(C)C)nn1C [Compound 56, N-((S)-1-(((1R,2R)-2-(Benzyloxy)-1-cyanopropyl)amino)-1-oxo-3-phenylpropan-2-yl)-3-(tert-butyl)-1-methyl-1H-pyrazole-5-carboxamide]	316 nM	501 nM	100 nM	115 to 116 °C	6310 nM	1000 nM	> 100000 nM	> 100000 nM	> 100000 nM	–	2000 nM	–	–	difference in pKi, Cz (recombinant cruzain (Cz); relative to compound 9): -1.0; EC50 ([2]; amastigote forms of T. cruzi (Tuhaluen strain), Figs 12-14, unit inferred): > 100000 nM
